Inhibition and IC50 data for twelve molecules are collected here from ChEMBL document CHEMBL5584241, “Discovery of new anti-diabetic potential agents based on paracetamol incorporating sulfa-drugs: Design, synthesis, α-amylase, and α-glucosidase inhibitors with molecular docking simulation” (Eur J Med Chem, 2024).

The species entered for test [1] is Homo sapiens. The experiment in a line: Inhibition of alpha-glucosidase (unknown origin) at 100 ug/ml using p-nitrophenyl-alpha-D-glucopyranoside as substrate incubated for 15 to 25 mins by spectrophotometric analysis relative to control. The conditions noted are these: dose 100.0 µg/ml, time 15-25 min.
A short description of test [2]: Inhibition of alpha-glucosidase (unknown origin) using p-nitrophenyl-alpha-D-glucopyranoside as substrate incubated for 15 to 25 mins by spectrophotometric analysis. Further details: species or system Homo sapiens.
In test [3] the target is Maltase-glucoamylase (Homo sapiens, UniProt O43451). In words: Inhibition of intestinal alpha-glucosidase (unknown origin) using p-nitrophenyl-alpha-D-glucopyranoside as substrate preincubated for 5 mins followed by substrate addition and measured after 5 mins by spectrophotometric analysis.
Chain of Maltase-glucoamylase (O43451 whole entry): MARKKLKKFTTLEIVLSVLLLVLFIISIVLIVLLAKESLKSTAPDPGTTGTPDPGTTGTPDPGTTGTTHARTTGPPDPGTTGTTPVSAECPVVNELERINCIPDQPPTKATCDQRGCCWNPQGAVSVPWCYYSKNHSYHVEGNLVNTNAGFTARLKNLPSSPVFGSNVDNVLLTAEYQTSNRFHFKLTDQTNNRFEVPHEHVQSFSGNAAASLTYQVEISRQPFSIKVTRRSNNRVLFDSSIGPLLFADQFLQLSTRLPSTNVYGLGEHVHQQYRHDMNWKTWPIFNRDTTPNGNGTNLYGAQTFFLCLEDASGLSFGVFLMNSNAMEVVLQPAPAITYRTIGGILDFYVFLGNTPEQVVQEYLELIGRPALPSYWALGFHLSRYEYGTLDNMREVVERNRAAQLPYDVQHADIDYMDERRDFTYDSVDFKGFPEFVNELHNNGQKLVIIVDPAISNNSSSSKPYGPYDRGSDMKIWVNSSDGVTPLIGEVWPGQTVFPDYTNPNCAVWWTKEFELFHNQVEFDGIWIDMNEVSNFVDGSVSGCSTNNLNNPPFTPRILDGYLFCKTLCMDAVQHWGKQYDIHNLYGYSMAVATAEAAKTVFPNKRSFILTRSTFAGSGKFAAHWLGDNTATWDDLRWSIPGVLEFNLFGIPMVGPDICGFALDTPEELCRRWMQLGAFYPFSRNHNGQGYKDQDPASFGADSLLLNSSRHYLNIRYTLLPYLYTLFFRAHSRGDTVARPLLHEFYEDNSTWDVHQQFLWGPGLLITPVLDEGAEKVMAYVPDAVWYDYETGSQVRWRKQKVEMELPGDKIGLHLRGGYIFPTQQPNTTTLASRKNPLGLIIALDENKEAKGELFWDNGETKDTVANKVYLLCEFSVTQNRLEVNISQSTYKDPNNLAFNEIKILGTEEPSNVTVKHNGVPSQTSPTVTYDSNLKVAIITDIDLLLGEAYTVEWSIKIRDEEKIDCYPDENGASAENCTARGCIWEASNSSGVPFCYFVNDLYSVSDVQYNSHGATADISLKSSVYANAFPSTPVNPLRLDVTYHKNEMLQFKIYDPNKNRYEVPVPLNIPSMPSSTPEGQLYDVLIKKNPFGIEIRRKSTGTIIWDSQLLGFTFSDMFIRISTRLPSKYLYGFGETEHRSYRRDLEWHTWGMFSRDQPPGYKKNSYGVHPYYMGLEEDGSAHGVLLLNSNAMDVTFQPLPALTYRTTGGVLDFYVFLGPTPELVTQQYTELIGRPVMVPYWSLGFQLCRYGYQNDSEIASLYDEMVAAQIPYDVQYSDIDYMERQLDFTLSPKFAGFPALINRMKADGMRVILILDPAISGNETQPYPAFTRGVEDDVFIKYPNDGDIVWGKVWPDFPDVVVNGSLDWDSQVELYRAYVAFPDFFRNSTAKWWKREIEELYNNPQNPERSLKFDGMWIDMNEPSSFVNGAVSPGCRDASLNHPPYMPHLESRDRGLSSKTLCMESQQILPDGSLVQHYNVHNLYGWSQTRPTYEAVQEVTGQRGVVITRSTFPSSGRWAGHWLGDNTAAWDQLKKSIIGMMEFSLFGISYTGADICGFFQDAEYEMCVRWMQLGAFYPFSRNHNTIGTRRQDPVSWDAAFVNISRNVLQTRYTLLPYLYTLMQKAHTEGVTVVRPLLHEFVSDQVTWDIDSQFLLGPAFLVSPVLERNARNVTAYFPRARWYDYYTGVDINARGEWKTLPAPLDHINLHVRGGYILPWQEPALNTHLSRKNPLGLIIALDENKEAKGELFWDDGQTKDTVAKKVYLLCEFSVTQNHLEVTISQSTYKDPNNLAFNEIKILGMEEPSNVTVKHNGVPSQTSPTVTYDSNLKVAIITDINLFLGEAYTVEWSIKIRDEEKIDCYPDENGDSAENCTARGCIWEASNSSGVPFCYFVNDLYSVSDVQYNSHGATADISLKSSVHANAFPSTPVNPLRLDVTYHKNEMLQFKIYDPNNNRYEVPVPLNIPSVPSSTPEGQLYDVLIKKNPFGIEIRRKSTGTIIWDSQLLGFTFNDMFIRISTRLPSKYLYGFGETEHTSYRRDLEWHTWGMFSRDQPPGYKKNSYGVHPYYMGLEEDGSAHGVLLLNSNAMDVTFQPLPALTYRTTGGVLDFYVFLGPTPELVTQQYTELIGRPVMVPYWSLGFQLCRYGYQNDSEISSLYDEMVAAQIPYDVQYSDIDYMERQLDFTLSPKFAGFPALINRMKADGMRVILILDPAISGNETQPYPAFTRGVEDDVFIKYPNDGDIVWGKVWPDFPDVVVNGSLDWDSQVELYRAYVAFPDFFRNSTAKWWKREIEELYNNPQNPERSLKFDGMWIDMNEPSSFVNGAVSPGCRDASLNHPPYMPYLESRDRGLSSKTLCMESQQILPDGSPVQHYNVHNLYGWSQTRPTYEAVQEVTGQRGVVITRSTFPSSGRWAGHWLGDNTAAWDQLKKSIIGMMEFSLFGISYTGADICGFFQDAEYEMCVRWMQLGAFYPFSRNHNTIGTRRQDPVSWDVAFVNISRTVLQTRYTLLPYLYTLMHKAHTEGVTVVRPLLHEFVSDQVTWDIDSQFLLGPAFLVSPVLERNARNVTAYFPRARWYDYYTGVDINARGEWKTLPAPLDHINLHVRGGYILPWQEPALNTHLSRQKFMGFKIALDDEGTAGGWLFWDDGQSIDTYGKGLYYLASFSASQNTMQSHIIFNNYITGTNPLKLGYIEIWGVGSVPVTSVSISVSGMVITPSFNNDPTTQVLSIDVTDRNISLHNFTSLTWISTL
Test [4] is described as follows: Inhibition of alpha-glucosidase (unknown origin). Further details: species or system Homo sapiens.
Test [5] has as its target T1, Alpha amylase (Homo sapiens, UniProt P0DUB6).
T1 sequence (P0DUB6 whole entry): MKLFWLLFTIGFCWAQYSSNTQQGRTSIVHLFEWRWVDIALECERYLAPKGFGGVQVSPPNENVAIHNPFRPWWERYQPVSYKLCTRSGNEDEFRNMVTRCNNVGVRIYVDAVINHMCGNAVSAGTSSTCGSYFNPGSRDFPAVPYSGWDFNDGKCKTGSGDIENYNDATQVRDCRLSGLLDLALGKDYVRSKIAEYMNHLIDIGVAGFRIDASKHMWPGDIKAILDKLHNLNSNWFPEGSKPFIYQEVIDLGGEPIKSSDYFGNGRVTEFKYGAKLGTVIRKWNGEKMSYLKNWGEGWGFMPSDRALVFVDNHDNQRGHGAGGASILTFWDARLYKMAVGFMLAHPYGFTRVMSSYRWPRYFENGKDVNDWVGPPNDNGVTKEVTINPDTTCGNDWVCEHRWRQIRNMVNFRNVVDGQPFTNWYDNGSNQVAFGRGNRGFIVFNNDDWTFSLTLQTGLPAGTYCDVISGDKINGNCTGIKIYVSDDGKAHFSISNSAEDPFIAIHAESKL
In words: Inhibition of alpha-amylase (unknown origin). Type of test: protein assay.

The term inhibition denotes the drop in the measured response relative to a control, in per cent. A higher inhibition goes with a response far below the control. By IC50 is commonly meant the concentration that gives 50% inhibition. Low values mean greater potency in that assay, high ones weaker potency in that assay. Turning to `CC(=O)Nc1ccc(O)c(/N=N/c2ccc(S(=O)(=O)Nc3noc(C)c3C)cc2)c1`, in test [1], the inhibition came to 95.6%. It took 2.95 µM to reach half-maximal inhibition in test [2] (IC50). For the molecule `O=S(=O)(NCCc1c[nH]c2ccccc12)c1cc(F)ccc1Cl`, in test [3], the IC50 worked out at 1.6 µM. This counts as single-digit micromolar. Regarding `CC(=O)Nc1ccc(O)c(/N=N/c2ccc(S(=O)(=O)Nc3nc(C)cc(C)n3)cc2)c1`, the inhibition in test [1] amounted to 94.1%. Moreover, the IC50 in test [2] amounted to 5.13 µM. Taken in the same sequence, the figures for `CC(=O)Nc1ccc(O)c(/N=N/c2ccc(S(=O)(=O)NC(=N)N)cc2)c1` were 91% and 96.5 µM. With `O=[N+]([O-])c1ccc(-c2nnc(NS(=O)(=O)c3ccc(Cl)c(Cl)c3)s2)cc1`, half-maximal inhibition in test [4] (IC50) was put at 5.5 µM.

For `C[C@H]1O[C@H](O[C@H]2[C@H](O)[C@@H](O)[C@@H](O[C@H]3[C@H](O)[C@@H](O)C(O)O[C@@H]3CO)O[C@@H]2CO)[C@H](O)[C@@H](O)[C@@H]1N[C@H]1C=C(CO)[C@@H](O)[C@H](O)[C@H]1O` (stereo partly specified) [ACARBOSE], the inhibition in test [1] stood at 95.8%. For the same molecule, half-maximal inhibition in test [2] (IC50) was put at 1.24 µM.

`CC(=O)Nc1ccc(O)c(/N=N/c2ccc(S(=O)(=O)Nc3ncccn3)cc2)c1` yielded an inhibition in test [1] of 95.7%. Further, in test [2], half-maximal inhibition (IC50) was put at 1.39 µM. On to `COc1ccccc1S(=O)(=O)Nc1nnc(-c2ccc([N+](=O)[O-])cc2)s1`, for which the IC50 in test [5] was 2.4 µM. Molecule `CC(=O)Nc1ccc(O)c(/N=N/c2ccc(S(=O)(=O)Nc3nccs3)cc2)c1` yielded an inhibition in test [1] of 93.4%. Moreover, the IC50 in test [2] stood at 44.1 µM. Taken in the same sequence, the figures for `CC(=O)Nc1ccc(O)c(/N=N/c2ccc(S(N)(=O)=O)cc2)c1` were 93.6% and 11 µM.

With `CC(=O)Nc1ccc(O)c(/N=N/c2ccc(S(=O)(=O)Nc3cc(C)on3)cc2)c1`, the inhibition in test [1] was found to be 92.6%. For the same molecule, half-maximal inhibition in test [2] (IC50) required 18.3 µM. On to `CC(=O)Nc1ccc(O)c(/N=N/c2ccc(S(=O)(=O)Nc3ccc(Cl)nn3)cc2)c1`, for which, in test [1], the inhibition amounted to 94.2%. Besides, in test [2], 19.1 µM corresponded to half-maximal inhibition (IC50).
